Consider five compounds from patent US20210338749A1, “METHODS OF TREATMENT OF INFLAMMATORY CONDITIONS AND ASSOCIATED INFECTIONS” (Servatus Ltd., priority 2018, published 2021).

Experiment [1] concerns Yersinia enterocolitica (ATCC 23715). In words: Agar well diffusion assay. The note with it: Y. enterocolitica; 100 μL culture per 9 mm well, 24 hours; ciprofloxacin 5 μg. In kind it is cell-based. Here is the method: (§1) The ability of the Lactobacillus species L. diolivorans, L. paracasei, L. parafarraginis, L. rapi and L. zeae deposited pursuant to the Budapest Treaty as described hereinbefore were tested for their ability to inhibit the growth of bacterial pathogens associated with inflammation and various inflammatory conditions. Pathogens tested for this purpose were Campylobacter jejuni (ATCC 33291), Helicobacter pylori (ATCC 700824), Clostridium difficile (ATCC 9689), Salmonella typhimurium (ATCC 29630), Yersinia enterocolitica (ATCC 23715), Citrobacter sp (ATCC 51378), Streptococcus pyogenes (ATCC 19615), Streptococcus mutans (ATCC 25175), Klebsiella oxytoca (ATCC 700324), and Proteus mirabilis (ATCC 25933). C. jejuni and H. pylori were grown under microaerobic conditions at 37° C. in 5% Columbia horse blood agar (CBA). S. typhimurium, Y. enterocolitica, Citrobacter sp., K. oxytoca and P. mirabilis were grown under aerobic conditions at 37° C. in nutrient agar. S. pyogenes and S. mutans were grown under aerobic conditions with 5% CO2 at 37° C. in 5% CBA. C. difficile was grown under anaerobic conditions at 37° C. in 5% CBA.
(§2) Inhibition of pathogen growth was determined using an agar well diffusion assay. Cultures of the five test Lactobacillus species were grown in MRS broth for 24 hours at 37° C. Each pathogen was sub-cultured onto nutrient agar plates or 5% CBA plates and incubated under the appropriate conditions (as described above) prior to resuspension in DPBS to give a McFarland standard of 0.5 (equivalent to 10^8 CFU/mL). Each 0.5 McFarland standardised culture was spread, using a swab, onto nutrient agar plates or CBA plates and allowed to soak in prior to making 9 mm wells. 100 μL of each test Lactobacillus, was then added to individual wells and the plates were incubated for 24 hours at 37° C. […] Following incubation, zones of inhibition or zones of growth reduction (hazing of growth) were measured (mm) and recorded. Two readings were taken for each zone and three replicates were used.
In general terms: Agar diffusion results depend on both activity and mobility in agar.

Experiment [2] relates to Proteus mirabilis (ATCC 25933). The experiment in a line: Agar well diffusion assay. In kind it is cell-based. The note with it: P. mirabilis; 100 μL culture per 9 mm well, 24 hours; ciprofloxacin 5 μg. Here is the method: as §1, §2
Experiment [3] relates to Campylobacter jejuni (ATCC 33291). In words: Agar well diffusion assay. In kind it is cell-based. To be noted: C. jejuni; 100 μL culture per 9 mm well, 24 hours; ciprofloxacin 5 μg. Here is the method:
as §1, §2

Experiment [4] relates to Helicobacter pylori (ATCC 700824). In words: Agar well diffusion assay. In kind it is cell-based. To be noted: H. pylori; 100 μL culture per 9 mm well, 24 hours; ciprofloxacin 5 μg. As to the method:
as §1, §2

Experiment [5] concerns Klebsiella oxytoca (ATCC 700324). The experiment in a line: Agar well diffusion assay. In kind it is cell-based. To be noted: K. oxytoca; 100 μL culture per 9 mm well, 24 hours; ciprofloxacin 5 μg. As to the method: as §1, §2
Experiment [6] has as its system Streptococcus pyogenes (ATCC 19615). The experiment in a line: Agar well diffusion assay. In kind it is cell-based. The note with it: S. pyogenes; 100 μL culture per 9 mm well, 24 hours; ciprofloxacin 5 μg. Here is the method:
as §1, §2

Experiment [7] relates to Streptococcus mutans (ATCC 25175). The experiment in a line: Agar well diffusion assay. The note with it: S. mutans; 100 μL culture per 9 mm well, 24 hours; ciprofloxacin 5 μg. In kind it is cell-based. Here is the method: as §1, §2
The test system of experiment [8] is Citrobacter sp (ATCC 51378). In words: Agar well diffusion assay. To be noted: 100 μL culture per 9 mm well, 24 hours, ciprofloxacin 5 μg. In kind it is cell-based. As to the method:
as §1, §2

Experiment [9] has as its system Salmonella typhimurium (ATCC 29630). In words: Agar well diffusion assay. To be noted: S. typhimurium; 100 μL culture per 9 mm well, 24 hours; ciprofloxacin 5 μg. In kind it is cell-based. As to the method:
as §1, §2

The subject of experiment [10] is Pseudomonas aeruginosa (ATCC 27853). The experiment in a line: Agar well diffusion assay. In kind it is cell-based. The note with it: P. aeruginosa, includes well diameter of 9 mm. As to the method:
as §2
(§3) The ability of L. diolivorans, L. paracasei, L. parafarraginis, L. rapi and L. zeae deposited pursuant to the Budapest Treaty as described hereinbefore were then tested for their ability to inhibit the growth of pathogenic bacteria Staphylococcus aureus (ATCC 29213 and ATCC 25923), Staphylococcus epidermidis (clinical isolate), Pseudomonas aeruginosa (ATCC 27853) and Escherichia coli K12. These pathogens were grown under aerobic conditions at 37° C. in nutrient agar. Inhibition of growth was determined using an agar well diffusion assay as described above. In addition, cell free supernatants derived from culture of the Lactobacillus species were also tested. Briefly, after 24 hours growth, cultures of Lactobacillus were centrifuged at 10,000×g and the supernatant filter sterilised through a 0.2 μm membrane. 100 μl of cell free supernatant was added to the wells containing pathogen.

A further experiment concerns Escherichia coli K12. The experiment in a line: Agar well diffusion assay. In kind it is cell-based. The note with it: E. coli, includes well diameter of 9 mm. As to the method:
as §2, §3

The subject of experiment [11] is Staphylococcus aureus (ATCC 29213). In words: Agar well diffusion assay. In kind it is cell-based. The note with it: S. aureus (ATCC 29213), includes well diameter of 9 mm. As to the method: as §2, §3
Experiment [12] concerns Staphylococcus aureus (ATCC 25923). In words: Agar well diffusion assay. In kind it is cell-based. To be noted: S. aureus (ATCC 25923), includes well diameter of 9 mm. As to the method:
as §2, §3

Experiment [13] has as its system DSS-induced ulcerative colitis. The note with it: chronic 2% DSS murine model, previous data obtained by CRL; cited from earlier work.
[14] abbreviates: cell free supernatants derived from Lactobacilli cultures.

As for `O=C(O)c1cn(C2CC2)c2cc(N3CCNCC3)c(F)cc2c1=O` [Ciprofloxacin, ciprofloxacin], the “Zones of inhibition/zones of growth reduction” value in [1] stood at 44.2 mm; in experiment [2] it was 44.2 mm; in experiment [3], 30.2 mm; in experiment [4], 31.7 mm; in experiment [5] it was 41.2 mm; in experiment [6] it was 30.2 mm. Also, the “Zones of inhibition/zones of growth reduction” value is given as 28.5 mm in experiment [7]; 47.0 mm in [8]; 49 mm in experiment [9]; 39.2 mm in experiment [10] (setting [14]); 39.2 mm in experiment [10] (live cultures of Lactobacilli); 40.0 mm in the experiment on Escherichia coli K12 (setting [14]). Moreover, the “Zones of inhibition/zones of growth reduction” value is given as 40.0 mm with Escherichia coli K12 (live cultures of Lactobacilli); 33.7 mm in [11] (setting [14]); 33.7 mm in experiment [11] (live cultures of Lactobacilli); 33.7 mm in [12] (setting [14]); 33.7 mm in experiment [12] (live cultures of Lactobacilli).

As to `Nc1ccc(O)c(C(=O)O)c1` [5-Aminosalicylic acid], in experiment [13], the “Therapeutic efficacy (DAI score)” value is “failed to demonstrate therapeutic efficacy”.

As for `C[C@]12C=CC(=O)C=C1CC[C@@H]1[C@@H]2[C@@H](O)C[C@@]2(C)[C@H]1CC[C@]2(O)C(=O)CO` [Prednisolone], the “Therapeutic efficacy (DAI score)” value in experiment [13] is reported as “failed to demonstrate therapeutic efficacy”.

`Nc1nc2nc[nH]c2c(=S)[nH]1` [6-Thioguanine]: the “Therapeutic efficacy (DAI score)” value in experiment [13] is “failed to demonstrate therapeutic efficacy”.

In the case of `O=C(O)c1cc(/N=N/c2ccc(S(=O)(=O)Nc3ccccn3)cc2)ccc1O` [Sulfasalazine], the “Therapeutic efficacy (DAI score)” value in experiment [13] is “failed to demonstrate therapeutic efficacy”.
